Reference: patent publication US11312722B2, “Hsp90 inhibitors and uses thereof” (TRUSTEES OF BOSTON UNIVERSITY, priority 2019, dated 2022)

Experiments:
[1] = test system: Hsp90 (C. neoformans whole cell lysate); assay type: binding; settings: for C. neo Selectivity (FS): C. neo FS calculated using EC50
Procedure: (§1) All analogs were assessed for Hsp90 binding affinity using a fluorescence polarization (FP)-based equilibrium competition assay in fungal and human whole cell lysates. […] Using lysates, the relative potency and selectivity for fungal Hsp90 was measured versus the entire ensemble of human Hsp90 isoforms in microplate format using small amounts of test materials. […] Thermal shift assays were performed under saturating ligand conditions, i.e. equimolar concentrations (10 μM) of protein and ligand. As a result, they provided qualitative evidence of target binding, but not a quantitative measurement of ligand affinity. For quantitation, a ligand dissociation constant (Ki) for key compounds was also determined using purified NBDs in FP assays and KD measurements were made by surface plasmon resonance (SPR) using a Biacore instrument. Finally, all analogs were assessed for whole cell antifungal activity against the pathogens C. albicans and C. neoformans.
(§2) FP assays. Whole cell lysates were prepared for FP assays as described previously. Total protein concentration of human and yeast lysates was determined by Bradford assay. […] Serial dilutions of test Hsp90 inhibitors were then assayed under these same conditions to monitor loss of fluorescence polarization as an indicator of probe displacement from Hsp90. […] Titrations of test compound in 25 μL of binding buffer (supplemented with 0.1 mg/mL bovine gamma globulin), were mixed with an equal volume of freshly prepared whole-cell lysate spiked with Cy3-GdA (0.1 nM). Plates were incubated at room temperature for 4.5 h to achieve equilibrium binding for the geldanamycin-based probe. […] Non-linear 4-parameter curve fitting of raw displacement data was performed in GraphPad Prism 5.0 to determine EC50 values as a measure of relative Hsp90-binding affinity. Results were normalized to the value determined for GdA in lysate of each cell type.
(§3) Statistical methods. […] In calculating the error of selectivity determinations, the fractional error of measurements in each species was summed to yield a composite error for the derived ratio.

[2] = target: Hsp90 (C. neoformans whole cell lysate) (Cryptococcus neoformans, UniProt J9VVA4); assay type: binding; settings: for EC50: read-out: C. neo EC50; for C. neo Active (biochemical): Yes/No call
Sequence of Hsp90 (C. neoformans whole cell lysate) (Cryptococcus neoformans, UniProt J9VVA4) (J9VVA4 1-699): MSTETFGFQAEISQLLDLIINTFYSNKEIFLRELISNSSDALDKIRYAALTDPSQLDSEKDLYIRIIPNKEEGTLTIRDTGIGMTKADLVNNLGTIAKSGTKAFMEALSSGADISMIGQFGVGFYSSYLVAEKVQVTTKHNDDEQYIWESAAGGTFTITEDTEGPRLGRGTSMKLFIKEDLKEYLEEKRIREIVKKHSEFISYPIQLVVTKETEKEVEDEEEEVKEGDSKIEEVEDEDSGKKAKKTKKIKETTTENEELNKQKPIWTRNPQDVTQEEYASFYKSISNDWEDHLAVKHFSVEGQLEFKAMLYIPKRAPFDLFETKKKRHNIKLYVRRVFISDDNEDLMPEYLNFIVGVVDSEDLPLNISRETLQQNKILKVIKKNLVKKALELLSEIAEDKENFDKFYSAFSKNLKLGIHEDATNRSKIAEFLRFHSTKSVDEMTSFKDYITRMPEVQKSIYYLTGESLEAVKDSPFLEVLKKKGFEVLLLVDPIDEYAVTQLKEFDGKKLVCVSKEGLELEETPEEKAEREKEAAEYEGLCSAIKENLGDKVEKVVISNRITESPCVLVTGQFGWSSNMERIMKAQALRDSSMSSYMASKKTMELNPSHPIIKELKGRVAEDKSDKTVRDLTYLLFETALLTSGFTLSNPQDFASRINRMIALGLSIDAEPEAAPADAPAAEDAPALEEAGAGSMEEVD
Procedure: as §1, §2, §3

[3] = test system: C. neoformans (Strain H99); assay: Antifungal sensitivity testing (MIC), C. neoformans H99; assay type: cell-based; settings: for MIC80 / MIC90: Cryptococcus neoformans; for MIC80: read-out: C. neo MIC80; for MIC90: read-out: C. neo MIC90; for C. neo Active (cells): Yes/No call
Procedure: Color scale bar: no growth inhibition (green) to complete inhibition (black). Each shaded box represents the mean of technical duplicates. The experiment was repeated as an independent biological replicate to confirm results.
Minimum inhibitory concentration (MIC) value for compounds against C. neoformans (Strain H99) was determined in dose-response format, in technical duplicate. Experiments were conducted in RPMI medium at 37° C. for 48 h. Relative viable cell number was measured by standard dye reduction (resazurin) assay.
Yeast strains and culture conditions. Strains used in this study were C. albicans CaCi2 (clinical isolate 2), [58] SC5314, [59] and C. neoformans H99. […] Active cultures were maintained on solid (2% agar) yeast extract peptone (YPD, 1% yeast extract, 2% bactopeptone, 2% glucose) at 4° C. for no more than one month.
Antifungal sensitivity testing. […] Each compound was tested in duplicate in at least two independent experiments. […] Plates were photographed after 24 h of incubation at 30° C.

[4] = test system: Hsp90 (C. albicans whole cell lysate); assay: biochemical; assay type: binding; settings: for C. alb Selective: Yes/No call
Procedure: as §1, §2, §3

[5] = target: Hsp90 (C. albicans whole cell lysate) (Candida albicans (strain SC5314 / ATCC MYA-2876) (Yeast), UniProt P46598); assay: biochemical; assay type: binding; settings: for C. alb Active (biochemical): Yes/No call; for EC50: read-out: C. alb EC50
Procedure: as §1, §2, §3

in vitro = settings: both, CD-1, mouse, liver microsomes
[6] = mouse liver microsomes

| MIC80 [3] [µM] | MIC90 [3] [µM] | CLint scaled at 1 μM (in vitro) [mL/min/kg] | half-life at 1 μM (in vitro) [min] | % remaining at 15 min (NADPH-free) ([6]; NADPH-free control) [%] | % remaining at 15 min ([6]; with NADPH) [%] | % remaining at 60 min ([6]; with NADPH) [%] | SMILES | C. neo Selectivity (FS) [1] | EC50 [2] [nM] | C. neo MIC80 [3] [µM] | C. neo MIC90 [3] [µM] | C. alb Selectivity (FS) [4] | C. alb Selective [4] | C. alb Active (biochemical) [5] | EC50 [5] [nM] | C. neo selective ([1]; Yes/No call) | C. neo Active (biochemical) [2] | C. neo Active (cells) [3] |
| --- | --- | --- | --- | --- | --- | --- | --- | --- | --- | --- | --- | --- | --- | --- | --- | --- | --- | --- |
| – | – | – | – | – | – | – | Cc1cccc(-c2cc(Nc3cc(O)cc(O)c3C(=O)N3Cc4ccc(N5CCN(C)CC5)cc4C3)n(C)n2)c1 [ACSM01279] | 18.3 | 449 | >25 | >25 | 3.7 | No | Yes | 2150 | – | – | – |
| – | – | – | – | – | – | – | Cc1cccc(-c2cc(Nc3cc(O)cc(O)c3C(=O)N3Cc4ccc(N5CCOCC5)cc4C3)n(C)n2)c1 [ACSM01280] | 6 | 2000 | >25 | >25 | – | No | No | > 10000 | – | – | – |
| – | – | – | – | – | – | – | Cn1nccc1Nc1cc(O)cc(O)c1C(=O)N1CC2CC2C1 (centres unmarked) [ACSM01301] | 5 | 2400 | >25 | >25 | – | No | No | > 10000 | – | – | – |
| – | – | – | – | – | – | – | O=C(c1c(O)cc(O)cc1Nc1cc(-c2ccccc2)nn1-c1ccccc1)N1Cc2ccccc2C1 [ACSM01305] | 8.1 | 577 | 6.25 | 3 | 0.9 | No | Yes | 1890 | – | – | – |
| – | – | – | – | – | – | – | COc1cccc(-c2cc(Nc3cc(O)cc(O)c3C(=O)N3Cc4ccc(N5CCN(C)CC5)cc4C3)n(C)n2)c1 [ACSM01375] | 9.6 | 1240 | >25 | >25 | – | No | No | > 10000 | – | – | – |
| – | – | – | – | – | – | – | O=C(O)Cn1nc(-c2ccccc2)cc1Nc1cc(O)cc(O)c1C(=O)N1Cc2ccccc2C1 [ACSM01476] | 5.8 | 537 | >25 | >25 | 1.4 | No | Yes | 2120 | – | – | – |
| – | – | – | – | – | – | – | CN1CCN(c2ccc3c(c2)CN(C(=O)c2c(O)cc(O)cc2Nc2cc(-c4cccc(C(F)(F)F)c4)nn2C)C3)CC1 [ACSM01487] | 50.1 | 55 | >25 | >25 | 2.3 | No | Yes | 1160 | – | – | – |
| – | – | – | – | – | – | – | Cn1nc(-c2ccccc2C(F)(F)F)cc1Nc1cc(O)cc(O)c1C(=O)N1Cc2ccncc2C1 [ACSM01491] | 62.2 | 47 | >25 | >25 | 3.9 | No | Yes | 724 | – | – | – |
| – | – | – | – | – | – | – | COc1cccc(-c2cc(Nc3cc(O)cc(O)c3C(=O)N3Cc4ccncc4C3)n(C)n2)c1 [ACSM01492] | 46.2 | 258 | >25 | >25 | 1.1 | No | Yes | 10600 | – | – | – |
| – | – | – | – | – | – | – | COc1ccc(Cn2nc(-c3ccccc3)cc2Nc2cc(O)cc(O)c2C(=O)N2Cc3ccncc3C2)cc1 [BUCMD00433] | 13 | 75 | >25 | >25 | 31 | Yes | Yes | 11 | Yes | Yes | No |
| > 25 | > 25 | – | – | – | – | – | COc1ccc(Cn2nc(-c3ccccc3)cc2Nc2cc(O)cc(O)c2C(=O)N2Cc3cccnc3C2)cc1 [Compound 23, 5-((1-((4-Methoxyphenyl)methyl)-3-phenyl-1H-pyrazol-5-yl)amino)-4-(5H,6H,7H-pyrrolo[3,4-b]pyridine-6-carbonyl)benzene-1,3-diol] | – | – | – | – | – | – | – | – | – | Yes | No |
| – | – | 1990 | 2.7 | 103.6 | 2.3 | 0 | Cn1nc(C2CCCCC2)cc1Nc1cc(O)cc(O)c1C(=O)N1Cc2cn[nH]c2C1 [Compound 105, 5-((3-Cyclohexyl-1-methyl-1H-pyrazol-5-yl)amino)-4-(1H,4H,5H,6H-pyrrolo[3,4-c]pyrazole-5-carbonyl)benzene-1,3-diol] | – | – | – | – | – | – | – | – | – | – | – |
| > 25 | > 25 | – | – | – | – | – | Cc1ccc(-c2cc(Nc3cc(O)cc(O)c3C(=O)N3Cc4cccnc4C3)n(C)n2)cc1 [Compound 119, 5-((1-Methyl-3-(4-methylphenyl)-1H-pyrazol-5-yl)amino)-4-(5H,6H,7H-pyrrolo[3,4-b]pyridine-6-carbonyl)benzene-1,3-diol] | – | – | – | – | – | – | Yes | – | – | – | – |
| > 25 | > 25 | – | – | – | – | – | Cc1ccc(-c2cc(Nc3cc(O)cc(O)c3C(=O)N3Cc4cn[nH]c4C3)n(C)n2)cc1 [Compound 120, 5-((1-Methyl-3-(4-methylphenyl)-1H-pyrazol-5-yl)amino)-4-(1H,4H,5H,6H-pyrrolo[3,4-c]pyrazole-5-carbonyl)benzene-1,3-diol] | – | – | – | – | – | – | Yes | – | – | – | – |
| > 25 | > 25 | – | – | – | – | – | COc1ccc(-c2cc(Nc3cc(O)cc(O)c3C(=O)N3Cc4cccnc4C3)n(C)n2)cc1 [Compound 122, 5-((3-(4-Methoxyphenyl)-1-methyl-1H-pyrazol-5-yl)amino)-4-(5H,6H,7H-pyrrolo[3,4-b]pyridine-6-carbonyl)benzene-1,3-diol] | – | – | – | – | – | – | Yes | – | – | – | – |
| > 25 | > 25 | – | – | – | – | – | COc1ccc(-c2cc(Nc3cc(O)cc(O)c3C(=O)N3Cc4cn[nH]c4C3)n(C)n2)cc1 [Compound 123, 5-((3-(4-Methoxyphenyl)-1-methyl-1H-pyrazol-5-yl)amino)-4-(1H,4H,5H,6H-pyrrolo[3,4-c]pyrazole-5-carbonyl)benzene-1,3-diol] | – | – | – | – | – | – | Yes | – | – | – | – |

| SMILES | MIC80 [3] [µM] | MIC90 [3] [µM] | CLint scaled at 1 μM (in vitro) [mL/min/kg] | half-life at 1 μM (in vitro) [min] | % remaining at 15 min (NADPH-free) ([6]; NADPH-free control) [%] | % remaining at 15 min ([6]; with NADPH) [%] | % remaining at 60 min ([6]; with NADPH) [%] | C. neo Selectivity (FS) [1] | EC50 [2] [nM] | C. neo MIC80 [3] [µM] | C. neo MIC90 [3] [µM] | C. alb Selectivity (FS) [4] | C. alb Selective [4] | C. alb Active (biochemical) [5] | EC50 [5] [nM] | C. neo selective ([1]; Yes/No call) | C. neo Active (biochemical) [2] | C. neo Active (cells) [3] |
| --- | --- | --- | --- | --- | --- | --- | --- | --- | --- | --- | --- | --- | --- | --- | --- | --- | --- | --- |
| Cc1cccc(-n2nc(C)c(Nc3cc(O)cc(O)c3C(=O)N3Cc4ccccc4C3)c2C)c1 [ACSM01486, (2-((3,5-Dimethyl-1-(m-tolyl)-1H-pyrazol-4-yl)amino)-4,6-dihydroxyphenyl)(isoindolin-2-yl)methanone] | > 25 | > 25 | – | – | – | – | – | 43.4 | 34 | – | – | 0.7 | No | Yes | 2060 | – | – | – |
| COc1ccccc1-n1nc(C)c(Nc2cc(O)cc(O)c2C(=O)N2Cc3ccccc3C2)c1C [ACSM01493, (2,4-Dihydroxy-6-((1-(2-methoxyphenyl)-3,5-dimethyl-1H-pyrazol-4-yl)amino)phenyl)(isoindolin-2-yl)methanone] | > 25 | > 25 | – | – | – | – | – | 7.2 | 191 | – | – | 1.2 | No | Yes | 1060 | – | – | – |
| Cc1nn(-c2cccc(C(F)(F)F)c2)c(C)c1Nc1cc(O)cc(O)c1C(=O)N1Cc2ccccc2C1 [ACSM01494, (2-((3,5-Dimethyl-1-(3-(trifluoromethyl)phenyl)-1H-pyrazol-4-yl)amino)-4,6-dihydroxyphenyl)(isoindolin-2-yl)methanone] | > 25 | > 25 | – | – | – | – | – | 97.7 | 30 | – | – | 1.8 | No | Yes | 1590 | – | – | – |
